According to patent US9296769B2, “Tenofovir alafenamide hemifumarate” (Gilead Sciences, Inc., priority 2011, dated 2016):
Read-outs that look alike come from different tables or passages of the source.

How the values were obtained:
[1] = for Thermodynamic stability: solvents such as ACN, toluene, MTBE, acetone, THF, 2-methyl THF
[2] = Source text: Chemical stability of the hemifumarate form of tenofovir alafenamide was compared with the monofumarate form. […] Conditions evaluated include temperature, relative humidity (RH), and the open or closed state of the container cap.
[3] = remark: listed apart in the source
Protocol: DVS analysis was conducted using 4.951 mg of tenofovir alafenamide hemifumarate. The material was kept at 25° C. in nitrogen at humidities ranging from 10% to 90% relative humidity; each step was equilibrated for 120 minutes.

[4] = 40° C./75% RH Cap Closed, 0 weeks
[5] = 40° C./75% RH Cap Closed, 1 week
[6] = 40° C./75% RH Cap Closed, 2 weeks
[7] = 40° C./75% RH Cap Closed, 4 weeks
[8] = 40° C./75% RH Cap Closed, 8 weeks
[9] = 40° C./75% RH Cap Open, 0 weeks
[10] = 40° C./75% RH Cap Open, 2 weeks
[11] = 40° C./75% RH Cap Open, 4 weeks
[12] = 40° C./75% RH Cap Open, 8 weeks

Row | Compound | % TA Area Normalized [2, 4] [%] | % Total Deg. Products [2, 4] [%] | % TA Area Normalized [2, 5] [%] | % Total Deg. Products [2, 5] [%] | % TA Area Normalized [2, 6] [%] | % Total Deg. Products [2, 6] [%] | % TA Area Normalized [2, 7] [%] | % Total Deg. Products [2, 7] [%] | % TA Area Normalized [2, 8] [%] | % Total Deg. Products [2, 8] [%] | % TA Area Normalized [2, 9] [%] | % Total Deg. Products [2, 9] [%] | % TA Area Normalized ([2]; 40° C./75% RH Cap Open, 1 week) [%] | % Total Deg. Products ([2]; 40° C./75% RH Cap Open, 1 week) [%] | % TA Area Normalized [2, 10] [%] | % Total Deg. Products [2, 10] [%] | % TA Area Normalized [2, 11] [%] | % Total Deg. Products [2, 11] [%] | % TA Area Normalized [2, 12] [%] | % Total Deg. Products [2, 12] [%] | other results
1 | CC(C)OC(=O)[C@H](C)N[P@](=O)(CO[C@H](C)Cn1cnc2c(N)ncnc21)Oc1ccccc1 [Monofumarate form, 9-[(R)-2-[[(S)-[[(S)-1-(isopropoxycarbonyl)ethyl]amino]phenoxyphosphinyl]methoxy]propyl]adenine] | 97.1 | 0.69 | 97.0 | 0.87 | 96.6 | 1.18 | 96.4 | 1.49 | 95.4 | 2.36 | 97.1 | 0.69 | 96.9 | 0.90 | 96.6 | 1.10 | 96.2 | 1.67 | 95.0 | 2.74 | Form conversion when suspended in solvent ([1]; ACN, ethyl acetate, MTBE and acetone): partially converts to the hemifumarate form; Form conversion when suspended in solvent ([1]; THF and 2-methyl THF): fully converts to the hemifumarate form; Thermodynamic stability ([1]; ethyl acetate): not thermodynamically stable; % TA Area Normalized ([2]; 70° C. Cap Closed, 0 weeks): 97.1%; % Total Deg. Products ([2]; 70° C. Cap Closed, 0 weeks): 0.69%; % TA Area Normalized ([2]; 70° C. Cap Closed, 2 weeks): 96.2%; % Total Deg. Products ([2]; 70° C. Cap Closed, 2 weeks): 1.83%; % TA Area Normalized ([2]; 70° C. Cap Closed, 4 weeks): 93.3%; % Total Deg. Products ([2]; 70° C. Cap Closed, 4 weeks): 4.78%
2 | CC(C)OC(=O)[C@H](C)N[P@](=O)(CO[C@H](C)Cn1cnc2c(N)ncnc21)Oc1ccccc1 [Hemifumarate form, 9-[(R)-2-[[(S)-[[(S)-1-(isopropoxycarbonyl)ethyl]amino]phenoxyphosphinyl]methoxy]propyl]adenine] | 98.4 | 0.05 | 98.4 | 0.14 | 98.5 | 0.14 | 98.4 | 0.25 | 98.0 | 0.49 | 98.4 | 0.05 | 98.5 | 0.15 | 98.5 | 0.14 | 98.4 | 0.26 | 98.1 | 0.50 | Thermodynamic stability ([1]; ethyl acetate, listed as tenofovir alafenamide hemifumarate): thermodynamically stable in most solvents; Hygroscopicity ([3]; 25° C. in nitrogen, 10% to 90% relative humidity): nonhygroscopic; Water absorbed ([3]; 25° C., relative humidity of 90%): 0.65%; % TA Area Normalized ([2]; 70° C. Cap Closed, 0 weeks): 98.4%; % Total Deg. Products ([2]; 70° C. Cap Closed, 0 weeks): 0.05%; % TA Area Normalized ([2]; 70° C. Cap Closed, 2 weeks): 98.5%; % Total Deg. Products ([2]; 70° C. Cap Closed, 2 weeks): 0.22%; % TA Area Normalized ([2]; 70° C. Cap Closed, 4 weeks): 98.4%; % Total Deg. Products ([2]; 70° C. Cap Closed, 4 weeks): 0.33%
